Assay results reported in PubChem BioAssay (NCI).
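Briefly, cells in 96-well plates were exposed to five compound concentrations for 48 h, and endpoints were estimated by linear interpolation. GI50 marks 50% less growth. TGI: total growth inhibition.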

Legend:
Test in all cases: growth of human tumour cells (NCI), 48 h
[1] = tested on: ACHN renal
[2] = tested on: EKVX NSCLC
[3] = tested on: U251 CNS
[4] = tested on: 786-0 renal
[5] = tested on: A498 renal
[6] = tested on: HT29 colon
[7] = tested on: HOP-62 NSCLC
[8] = tested on: SF-268 CNS
[9] = tested on: NCI-H522 lung
[10] = tested on: NCI-H460 lung
[11] = tested on: UO-31 renal
[12] = tested on: COLO 205 colon
[13] = tested on: TK-10 renal
[14] = tested on: SF-295 CNS
[15] = tested on: SK-OV-3 ovarian
[16] = tested on: MDA-MB-231 breast
[17] = tested on: T-47D breast
[18] = tested on: MDA-MB-435
[19] = tested on: DU-145 prostate

| SMILES | TGI [1] | TGI [2] | TGI [3] | TGI [4] | TGI [5] | TGI [6] | TGI [7] | TGI [8] | TGI [9] | TGI [10] | TGI [11] | TGI [12] | TGI [13] | TGI [14] | TGI [15] | TGI [16] | TGI [17] | TGI [18] | TGI [19] | GI50 [9] |
| --- | --- | --- | --- | --- | --- | --- | --- | --- | --- | --- | --- | --- | --- | --- | --- | --- | --- | --- | --- | --- |
| Ic1ncnc2c1ncn2C1CCCO1 (stereo unspecified) | > 100 µM | > 100 µM | > 100 µM | > 100 µM | > 100 µM | > 100 µM | > 100 µM | > 100 µM | > 100 µM | > 100 µM | > 100 µM | > 100 µM | > 100 µM | > 100 µM | > 100 µM |  |  |  |  |  |
| O=c1c(C=Nc2ccccc2Cl)c(O)n(-c2ccccc2)c(=O)n1-c1ccccc1 | > 100 µM | > 100 µM | > 100 µM | > 100 µM | > 100 µM | > 100 µM | > 100 µM | > 100 µM | > 100 µM | > 100 µM | > 100 µM | > 100 µM | > 100 µM | > 100 µM | > 100 µM | > 100 µM | > 100 µM | > 100 µM |  |  |
| Nc1nc(N)c2cc(Sc3ccc4nc(N)nc(N)c4c3)ccc2n1 | > 100 µM | > 100 µM | > 100 µM |  | > 100 µM | > 100 µM | > 100 µM | > 100 µM |  | > 100 µM | > 100 µM | > 100 µM | > 100 µM |  | > 100 µM | > 100 µM | > 100 µM | > 100 µM | > 100 µM |  |
| COc1cc(C2SCC(=O)N2c2ccccc2Cl)cc(OC)c1OC (stereo unspecified) | > 100 µM | > 100 µM | > 100 µM | > 100 µM | > 100 µM | > 100 µM |  | > 100 µM | > 100 µM | > 100 µM | > 100 µM | > 100 µM | > 100 µM | > 100 µM | > 100 µM | > 100 µM |  | 64.8 µM | > 100 µM |  |
| COc1cc2c[n+](C)c3c4cc5c(cc4ccc3c2cc1OC)OCO5 | > 100 µM | 18.7 µM | 2.13 µM | 21.7 µM | 2.67 µM | 4.6 µM | 16.4 µM | 39.4 µM | 2.06 µM | 14.7 µM | > 100 µM | 4.48 µM | > 93.1 µM | 57.7 µM | 5.64 µM | > 100 µM |  | > 100 µM | 9.19 µM |  |
| Cc1cc(C)nc(NS(=O)(=O)c2ccc(NNc3c4ccccc4nc4c(C(=O)Nc5ccc(S(=O)(=O)Nc6ncccn6)cc5)cccc34)cc2)n1 | 54.3 µM | 54.3 µM | 56 µM | > 100 µM |  | 77.4 µM | > 100 µM | > 100 µM | 48.9 µM | 92 µM | > 100 µM | 54.3 µM | > 100 µM | > 100 µM | 89.9 µM | 65.3 µM | 74.3 µM | 55.3 µM | > 100 µM |  |
| COC1CC(C)C(OC)C2=CC(=O)C=C(NC(=O)/C(C)=C/C=C\C(C)C(OC(N)=O)/C(C)=C\C(C)C1OC)C2=O (stereo unspecified) | 3.97 µM | 23.1 µM | 11 µM | 2.87 µM | 24.2 µM |  | 10.5 µM | 6.98 µM | 0.728 µM | 8.37 µM | 10.8 µM | 3.19 µM | 9.81 µM | 13.4 µM | 2.81 µM |  |  |  | 15.9 µM | 0.0592 µM |
| C/C1=C/C(C)CC(C)OC(=O)C(C)NC(=O)C(Cc2ccc(O)c(I)c2)N(C)C(=O)CNC(=O)C(C)C1 (stereo unspecified) |  | > 21.9 µM | 0.0707 µM |  | < 0.0134 µM | > 100 µM | < 0.01 µM | 1.35 µM |  | > 59.7 µM | 0.035 µM | > 100 µM |  | 1.73 µM | 2.16 µM | 1.99 µM | > 100 µM | 16.6 µM | > 100 µM |  |
| O=C(Nc1ccc(Cl)cc1)C(=O)C(C(=O)c1ccccc1-c1ccccc1)C1OC(=O)c2ccccc21 (stereo unspecified) | 92.4 µM | 37.9 µM | 27.8 µM |  | 38.7 µM | 58.6 µM | > 100 µM | 64.1 µM | 28.3 µM | 40.1 µM | 36.6 µM | 44.4 µM | 57.3 µM | > 100 µM | 64.3 µM |  |  |  |  |  |
| CCOC(=O)C(C(=O)OCC)=C1NC2(c3ccccc3Nc3ccc(C)cc32)C(C#N)S1 (stereo unspecified) | 16.3 µM | 39.5 µM | 17.9 µM | 30.1 µM | 29.4 µM | 15.1 µM | 33.7 µM | 36.2 µM | 30 µM | 12.7 µM | 17.8 µM | 14.6 µM | 31.1 µM | 58.7 µM | 98.9 µM |  | 34.6 µM | 23.5 µM | 43.8 µM |  |
| COc1ccc2cc(Oc3ccc(Cl)cc3)c(=O)oc2c1 | > 100 µM | > 100 µM |  | > 100 µM | > 100 µM | > 100 µM | > 100 µM | > 100 µM | > 100 µM | > 100 µM | > 100 µM |  | > 100 µM | > 100 µM |  | > 100 µM | > 100 µM |  | > 100 µM |  |
| ClC1(Cl)C(c2ccccc2)C1c1ccccc1 (stereo unspecified) | 89.7 µM | 53.1 µM | > 100 µM | > 100 µM | > 100 µM |  | > 100 µM | > 100 µM |  | 51.2 µM | > 100 µM | > 100 µM | > 100 µM | 82.3 µM | 55.7 µM | > 100 µM | > 100 µM | 68.6 µM | > 100 µM |  |
| CN(C)C=C1C(=O)c2c(Br)sc(Br)c2C1=O | 93.7 µM | 40.5 µM | 39.6 µM | > 100 µM | 47.8 µM | 86.5 µM | 91.4 µM | 32.5 µM | 31.5 µM | 48.7 µM | 47.5 µM | 37.7 µM | 99.7 µM | 49.7 µM | 62.7 µM |  | > 100 µM | 29.5 µM | > 100 µM |  |
| Cc1csc2nc3c(cnn3C)c(=S)n12 | > 100 µM | > 100 µM | > 100 µM | > 100 µM |  | > 100 µM | > 100 µM | > 100 µM | 41.9 µM | > 100 µM | > 100 µM | > 10 µM | > 100 µM | > 100 µM | > 100 µM | > 10 µM | > 10 µM | > 100 µM |  |  |
| O=C1c2ccccc2C(O)(C(=O)O)C1(O)CC=C(Cl)Cl (stereo unspecified) |  | > 125 µM | > 125 µM |  | > 125 µM | > 125 µM | > 125 µM | > 125 µM | > 125 µM | > 125 µM | > 125 µM | > 125 µM |  | > 125 µM | > 125 µM |  |  |  |  |  |
| CCN(CC)C(=C(C(Cl)=C(Cl)Cl)[N+](=O)[O-])N(CC)CC | > 100 µM | > 100 µM | > 100 µM | > 100 µM | > 100 µM | > 100 µM | > 100 µM | > 100 µM |  | > 100 µM | > 100 µM | > 100 µM | > 100 µM | > 100 µM | > 100 µM | > 100 µM | > 100 µM |  | > 100 µM |  |
| CCC(C)C(C(=O)N/N=C1/SCC(=O)N1c1ccccc1)C(=O)N/N=C1/SCC(=O)N1c1ccccc1 (stereo unspecified) | > 100 µM | > 100 µM | > 100 µM | > 100 µM |  | > 100 µM | > 100 µM | > 100 µM | > 100 µM | > 100 µM | > 100 µM | > 100 µM | > 100 µM | > 100 µM | 74.6 µM | 88.7 µM | > 100 µM | 35.9 µM | > 100 µM |  |
| N=c1oc2ccc([N+](=O)[O-])cc2cc1C(=O)NCc1ccccc1 | 31.1 µM | > 100 µM | 83 µM | 40 µM |  | 40.7 µM | > 100 µM | 40.6 µM | 25.8 µM | > 100 µM | 35.8 µM | 40.5 µM | 99.4 µM | > 100 µM | > 100 µM | 60.9 µM | 67.3 µM | 49.3 µM | > 100 µM |  |
| O=C(O)c1ccc(P(=O)(O)c2ccc(C(=O)O)cc2Br)c(Br)c1 |  | > 100 µM |  | > 100 µM |  |  | > 100 µM | > 100 µM | > 100 µM |  | > 100 µM | > 100 µM | > 100 µM | > 100 µM | > 100 µM | > 100 µM |  | > 100 µM | > 100 µM |  |
| COC(=O)Nc1nc2ccc(S(=O)(=O)NC(CC(C)C)C(=O)OC)cc2[nH]1 (stereo unspecified) | > 100 µM | 89.8 µM | > 100 µM | > 100 µM | 28 µM | 8.06 µM | > 100 µM | > 100 µM | 0.888 µM | > 100 µM | > 100 µM | 59.3 µM | 31.9 µM | 5.44 µM | > 100 µM | > 100 µM | > 100 µM |  |  |  |
| COc1ccc(Nc2nnc(CCCCCCCCc3nnc(Nc4ccc(OC)cc4)o3)o2)cc1 | > 100 µM | > 100 µM | > 100 µM | > 100 µM | > 100 µM | > 100 µM | > 100 µM | > 100 µM | > 100 µM | > 100 µM | > 100 µM | > 100 µM | > 100 µM | > 100 µM | > 100 µM | > 100 µM |  | > 100 µM | > 100 µM |  |
| O=c1[nH]n(Cc2ccccc2Cl)c2ccc([N+](=O)[O-])cc12 | > 100 µM | > 100 µM | > 100 µM | > 100 µM | 64.3 µM | > 100 µM | > 100 µM | > 100 µM | > 100 µM | > 100 µM | > 100 µM | > 100 µM | > 100 µM |  |  | > 100 µM |  | > 100 µM | > 100 µM |  |
